“Also recorded” adds a separate entry of the source. Peptide text beside a SMILES is read from it. * marks the point of attachment. Cbz = O=C(OCc1ccccc1)*
Legend:
[1] = system: FAO hepatoma cells; assay: Western blots / gene expression in FAO hepatoma cells transduced with Fc or N1-IC; assay type: cell-based; settings: MG132 for 4-h
Description: FIG. 8A-FIG. 8F: Activation of hepatic Notch increases mTor, lipogenic genes, and steatosis in chow-fed mice. *p<0.05, **p<0.01, ***p<0.001 vs. Fc or GFP. Protein expression normalized to either Actin or Tubulin. Mice were 8-week-old C57Bl/6 males, unless otherwise indicated. […] FIG. 8D: Liver Western blots in mice transduced with GFP or N1-IC adenovirus, sacrificed after a 16-h fast followed by 2-h refeeding. (n=6/group). FIG. 8E: Gene expression analysis in mice transduced with GFP or N1-IC adenovirus, sacrificed after a 16-h fast followed by 2-h refeeding. (n=6/group). FIG. 8F: De novo lipogenesis in hepatocytes after transduction with GFP or N1-IC adenovirus and incubation with 10 nM insulin (triplicate wells, representative of 2 individual experiments). FIG. 8G: Hepatic triglyceride content 7-d after GFP or N1-IC transduction in 16-h fasted, 24-week-old, chow-fed Cre- and L-Rbpj mice. […] FIG. 8K-FIG. 8M: Quantitation of the phospho/total mTor, 4E-BP1 and S6k levels from the experiments in FIG. 8J. […]
(§1) Notch1-IC, Notch decoy (1-24), Fc and GFP adenoviruses have been described (Kitamura 2007; Funahashi 2011; Nakae 2003). We transduced primary hepatocytes or HEK 293 ceils at MOI 5 and FAO hepatoma cells at MOI 200, to achieve 90-100% infection efficiency as assessed by GFP expression. […]

[2] = system: primary hepatocytes; assay: Western blots of primary hepatocytes transfected with Raptor cDNA, transduced with Fc or Notch1, cycloheximide; assay type: cell-based, mouse; settings: cycloheximide for 2-h
Protocol: FIG. 11A-FIG. 11H: Notch induces mTorc1 complex stability. FIG. 11A: Western blots of liver proteins from 5h-fasted L-Rbpj and control mice (mTor and Actin blots reproduced from FIG. 2n), FIG. 11B: Western blot of liver protein from chow-fed, 12-week-old mice transduced with Fc or N1-IC, sacrificed at day 7, after overnight fasting. FIG. 11C: Western blots from FAO hepatoma cells transduced with either Fc or N1-IC, with or without treatment with MG132 for 4-h. FIG. 11D: Western blots of primary hepatocytes, transfected with Raptor cDNA, then transduced with Fc or Notch1 and treated for 2-h with cycloheximide. […]
We isolated and cultured primary mouse hepatocytes as described (Pajvani 2011). […] We measured fatty acid oxidation as described (Li 2011), with the following modifications: primary hepatocytes were incubated serum-free medium with 1.5% fatty-acid free BSA (Sigma) containing 0.1 mM cold oleic acid and 1 μCi 14C-oleic acid (PerkinElmer Life Sciences) for 4 h. […] Trapped 14CO2 on the alkalinized filter paper was measured as described (Li 2011). We measured lipogenesis as described (Yecies 2011), with the following modifications: hepatocytes were stimulated with 10 nM insulin in serum-free DMEM for 2 h, then labeled with 14C-acetate (PerkinElmer Life Sciences) for 2 h. […]

[3] = system: N1-IC-transduced mice; assay: Rapamycin treatment of Fc or N1-IC-transduced mice; assay type: in vivo, mouse; settings: data not shown
Protocol: FIG. 9A-FIG. 9F: mTor inhibition prevents Notch-induced fatty liver. Data shown means±SEM. FIG. 9A: Fasn-luciferase in FAO hepatoma cells transfected with either Raptor or scrambled (scr) shRNA, transduced with either Fc (−) or N1-IC (Notch) adenovirus and treated for 16-h with 100 nM insulin. ***p<0.001 vs. Fc control, &p<0.001 vs. scrambled shRNA, #p<0.001 vs. no insulin. […]
Blood glucose was measured by glucose meter (OneTouch) and plasma insulin by ELISA (Millipore). […] Hepatic de novo lipogenesis was determined by measuring the amount of newly synthesized FA, as resolved by TLC, present in the liver 1 h after intraperitoneal injection of 1 mCi of 3H2O (Zhang 2006). Triglyceride secretion rate was measured after injection of Poloxamer 407, with serial measurement of plasma triglycerides (Li 2011).
as §1

## CC(C)C[C@@H](C=O)NC(=O)[C@H](CC(C)C)NC(=O)[C@H](CC(C)C)NC(=O)OCc1ccccc1 [MG132] (Cbz-Leu-Leu-Leu-aldehyde)
[1]
  effect of N1-IC on Raptor protein under proteosomal inhibition: independent

## C[C@@H]1C[C@@H]([C@H](O)CC2CC(=O)NC(=O)C2)C(=O)[C@@H](C)C1 [cycloheximide]
[2]
  effect of N1-IC on Raptor protein under protein synthesis inhibition: fully reversed; also recorded: prevents

## CO[C@H]1C[C@@H]2CC[C@@H](C)[C@@](O)(O2)C(=O)C(=O)N2CCCC[C@H]2C(=O)O[C@H]([C@H](C)C[C@@H]2CC[C@@H](O)[C@H](OC)C2)CC(=O)[C@H](C)/C=C(\C)[C@@H](O)[C@@H](OC)C(=O)[C@H](C)C[C@H](C)/C=C/C=C/C=C/1C [rapamycin]
[3]
  effect of rapamycin on glucose tolerance: mild glucose intolerance
